According to patent US20260125382A1, “COMPOUNDS FOR INHIBITING OR DEGRADING CDK2 AND/OR CDK9 AND MEDICINAL USE THEREOF” (KOREA RESEARCH INSTITUTE OF CHEMICAL TECHNOLOGY, priority 2022, published 2026):

Tests used:
[1] = target: T1, CDK2 (Homo sapiens, UniProt P24941); assay: CDK protein degradation activity (Western blotting), CDK2; assay type: cell-based; settings: MDA-MB-231 cells, 16 hours, Western blot
T1 construct: endogenous in cells; host or cells: MDA-MB-231
How it was run: (§1)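 MDA-MB-231 cells were treated with compound at final concentrations of 100 nM, 1 μM and 10 μM, or DMSO vehicle, for 16 h. Lysates were resolved by SDS-PAGE and immunoblotted for CDK2, CDK9 and tubulin, with band intensities quantified densitometrically.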

[2] = target: T2, CDK9 (Homo sapiens, UniProt P50750); assay: CDK protein degradation activity (Western blotting), CDK9; assay type: cell-based; settings: MDA-MB-231 cells, 16 hours, Western blot
T2 construct: endogenous in cells; host or cells: MDA-MB-231
How it was run: as §1

T2 sequence (P50750 whole entry): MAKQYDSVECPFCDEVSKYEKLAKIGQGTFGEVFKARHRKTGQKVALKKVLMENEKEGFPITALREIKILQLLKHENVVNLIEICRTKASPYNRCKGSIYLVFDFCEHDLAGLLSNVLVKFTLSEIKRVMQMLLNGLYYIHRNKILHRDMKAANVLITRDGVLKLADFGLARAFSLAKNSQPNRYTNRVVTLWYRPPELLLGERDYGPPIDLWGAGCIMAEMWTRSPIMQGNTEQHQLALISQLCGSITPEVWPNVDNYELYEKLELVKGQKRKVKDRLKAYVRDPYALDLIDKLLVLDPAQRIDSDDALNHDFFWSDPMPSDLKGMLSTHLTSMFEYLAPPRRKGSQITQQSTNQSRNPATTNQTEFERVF

Compound	Enzyme degradation CDK2 (% remaining) @ 0.1 μM [1]	Enzyme degradation CDK2 (% remaining) @ 1 μM [1]	Enzyme degradation CDK2 (% remaining) @ 10 μM [1]	Enzyme degradation CDK9 (% remaining) @ 0.1 μM [2]	Enzyme degradation CDK9 (% remaining) @ 1 μM [2]	Enzyme degradation CDK9 (% remaining) @ 10 μM [2]
Cc1cccc(C(=O)NC2CC(n3cnc4c(NCCCN5CCN(CC6CCN(C(=O)COc7cccc8c7C(=O)N([C@@H]7CCC(=O)NC7=O)C8=O)CC6)CC5)ncnc43)C2)n1 (stereo partly drawn) [Compound 142, N-((1r,3r)-3-(6-((3-(4-((1-(2-((2-(2,6-dioxopiperidin-3-yl)-1,3-dioxoisoindolin-4-yl)oxy)acetyl)piperidin-4-yl)methyl)piperazin-1-yl)propyl)amino)-9H-purin-9-yl)cyclobutyl)-6-methylpicolinamide]	80%	70%	50%	70%	0%	0%
O=C1CC[C@H](N2C(=O)c3ccc(N4CCN(CC=CCN5CCC6(CC5)CC(N5CCN(c7ccc(Nc8ncnc9c8ncn9C8CC(NC(=O)Cc9ccccc9)C8)cc7)CC5)C6)CC4)cc3C2=O)C(=O)N1 (stereo partly drawn) [Compound 479, N-((1s,3s)-3-(6-((4-(4-(7-(4-(4-(2-(2,6-dioxopiperidin-3-yl)-1,3-dioxoisoindolin-5-yl)piperazin-1-yl)but-2-en-1-yl)-7-azaspiro[3.5]nonan-2-yl)piperazin-1-yl)phenyl)amino)-9H-purin-9-yl)cyclobutyl)-2-phenylacetamide]	50%	60%	60%	30%	20%	20%
O=C1CC[C@H](N2C(=O)c3ccc(N4CCN(CCCC5CCN(c6ccc(Nc7ncnc8c7ncn8C7CC(NC(=O)Cc8ccccc8)C7)cc6)CC5)CC4)cc3C2=O)C(=O)N1 (stereo partly drawn) [Compound 347, N-((1s,3s)-3-(6-((4-(4-(3-(4-(2-(2,6-dioxopiperidin-3-yl)-1,3-dioxoisoindolin-5-yl)piperazin-1-yl)propyl)piperidin-1-yl)phenyl)amino)-9H-purin-9-yl)cyclobutyl)-2-phenylacetamide]	10%	0%	0%	30%	0%	0%
O=C1CC[C@H](N2C(=O)c3ccc(N4CCC(CN5CCC(CNc6ncnc7c6ncn7[C@H]6C[C@@H](NC(=O)c7c(Cl)cccc7Cl)C6)CC5)CC4)cc3C2=O)C(=O)N1 [Compound 173, 2,6-dichloro-N-((1s,3s)-3-(6-(((1-((1-(2-(2,6-dioxopiperidin-3-yl)-1,3-dioxoisoindolin-5-yl)piperidin-4-yl)methyl)piperidin-4-yl)methyl)amino)-9H-purin-9-yl)cyclobutyl)benzamide]	30%	30%	50%	50%	20%	0%
O=C1CCC(N2C(=O)c3ccc(N4CCC(C(=O)N5CCC(CN6CCN(c7ccc(Nc8ncnc9c8ncn9[C@H]8C[C@@H](NC(=O)c9cccc(Cl)n9)C8)cc7)CC6)CC5)CC4)cc3C2=O)C(=O)N1 (stereo partly drawn) [Compound 452, 6-chloro-N-((1s,3s)-3-(6-((4-(4-((1-(1-(2-(2,6-dioxopiperidin-3-yl)-1,3-dioxoisoindolin-5-yl)piperidin-4-carbonyl)piperidin-4-yl)methyl)piperazin-1-yl)phenyl)amino)-9H-purin-9-yl)cyclobutyl)picolinamide]	30/30/30%	30/30/30%	30/30/30%	0/0/0%	0/0/0%	0/0/0%
O=C1CC[C@H](N2C(=O)c3cc(F)c(N4CCC(C(=O)N5CCC(CN6CCN(c7ccc(Nc8ncnc9c8ncn9[C@H]8C[C@@H](NC(=O)c9c(Cl)cccc9Cl)C8)cc7)CC6)CC5)CC4)cc3C2=O)C(=O)N1 [Compound 462, 2,6-dichloro-N-((1s,3s)-3-(6-((4-(4-((1-(1-(2-(2,6-dioxopiperidin-3-yl)-6-fluoro-1,3-dioxoisoindolin-5-yl)piperidin-4-carbonyl)piperidin-4-yl)methyl)piperazin-1-yl)phenyl)amino)-9H-purin-9-yl)cyclobutyl)benzamide]	30%	20%	20%	0/0/0%	0/0/0%	0/0/0%
O=C1CC[C@H](N2C(=O)c3ccc(N4CC(C(=O)N5CCC(CN6CCN(c7ccc(Nc8ncnc9c8ncn9C8CC(NC(=O)c9cccc(Cl)n9)C8)cc7)CC6)CC5)C4)cc3C2=O)C(=O)N1 (stereo partly drawn) [Compound 451, 6-chloro-N-((1s,3s)-3-(6-((4-(4-((1-(1-(2-(2,6-dioxopiperidin-3-yl)-1,3-dioxoisoindolin-5-yl)azetidin-3-carbonyl)piperidin-4-yl)methyl)piperazin-1-yl)phenyl)amino)-9H-purin-9-yl)cyclobutyl)picolinamide]	50%	30%	30%	0/0/0%	0/0/0%	0/0/0%
Cc1cccc(C(=O)N[C@H]2C[C@@H](n3cnc4c(NCc5cccc(N6CCN(CC7CCN(C(=O)COc8cccc9c8C(=O)N(C8CCC(=O)NC8=O)C9=O)CC7)CC6)c5)ncnc43)C2)n1 (stereo partly drawn) [Compound 132, N-((1s,3s)-3-(6-((3-(4-((1-(2-((2-(2,6-dioxopiperidin-3-yl)-1,3-dioxoisoindolin-4-yl)oxy)acetyl)piperidin-4-yl)methyl)piperazin-1-yl)benzyl)amino)-9H-purin-9-yl)cyclobutyl)-6-methylpicolinamide]	60%	40%	40%	70%	10%	0%
O=C1CC[C@H](N2C(=O)c3cccc(OCC(=O)N4CCN(CC5CCN(c6ccc(Nc7ncnc8c7ncn8C7CC(NC(=O)Cc8ccccc8)C7)cc6)CC5)CC4)c3C2=O)C(=O)N1 (stereo partly drawn) [Compound 326, N-((1s,3s)-3-(6-((4-(4-((4-(2-((2-(2,6-dioxopiperidin-3-yl)-1,3-dioxoisoindolin-4-yl)oxy)acetyl)piperazin-1-yl)methyl)piperidin-1-yl)phenyl)amino)-9H-purin-9-yl)cyclobutyl)-2-phenylacetamide]	20%	0%	0%	80%	10%	0%
